Experiments:
[1] = tested on: pyruvate oxidation by diaphragm tissue from fat-fed rats; experiment: Pyruvate oxidation (14C-pyruvate into CO2) by diaphragm tissue from fat-fed rats in vitro; assay type: cell-based; conditions: Rattus norvegicus, read-out: % Stimulation of pyruvate oxidation; for activation at 2000 µM: 2.0 mM compound in medium
Method: (1) increase the oxidation of glucose and/or pyruvate by isolated rat muscle preparation in vitro;
(1) (a) Diaphragm tissue is obtained from rats fed on a high fat diet similar to `Diet B` described by Zaragoza and Felber (Horm. Metab. Res. 1970, 2, 323). Pyruvate oxidation by such tissue is assessed by measurement of the rate of incorporation of carbon-14 carbon-14-labelled pyruvate into carbon dioxide in vitro, as described by Bringolf (Eur. J. Biochem. 1972, 26, 360). The rate of pyruvate oxidation is depressed by 50-75% compared with that by diaphragm tissue from rats fed on a normal diet. When the compounds of the formula (I) are added to the medium, they are found to stimulate pyruvate oxidation by diaphragm tissue from fat-fed rats in a dose dependent manner.
The degree of stimulation by the compounds of the formula (I) at a concentration of 2.0 mM (unless otherwise stated) is shown in the following Table.

[2] = tested on: pyruvate dehydrogenase (PDH); experiment: Proportion of active pyruvate dehydrogenase (PDHa/PDHt) in hearts of fat-fed rats after dosing in vivo; set-up: species or system rat; conditions: heart of fat-fed rats
Method: (2) increase the proportion of the active form of the enzyme pyruvate dehydrogenase (PDH) in organs of animals (e.g. rats) in vivo; and
The ability of compounds of formula (I) to increase the proportion of the active form of the pyruvate dehydrogenase enzyme may be measured by the following test.
(2) Rats fed on a high fat diet as in test (1) (a), are treated either with placebo or with the compound of formula (I), by subcutaneous or intravenous injection or by oral administration, and at various times after treatment the rat hearts are removed and homogenized, under conditions which minimize changes in the proportion of the pyruvate dehydrogenase enzyme which is present in the active form, as described by Whitehouse and Randle (Biochem. J. 1973, 134, 651). The total amount of the enzyme present (PDHt) and the amount which is present in the active form (PDHa) are assessed by a method similar to that described by Taylor et al (J. Biol. Chem. 1973, 248, 73). The fat-feeding process is found to depress the ratio PDHa/PDHt from a normal value of about 0.7 to a value in the range from 0.05 to 0.2.

[3] = tested on: rats in which diabetes has been induced by treatment with streptozotocin; experiment: Blood glucose levels in streptozotocin-diabetic rats; assay type: in vivo; conditions: averages for 8 animals
Method: (4) decrease blood glucose levels in animals made diabetic by chemical lesion of the pancreas.
The ability of compounds of formula (I) to decrease blood glucose levels may be assessed by measuring their effect on blood glucose levels in rats in which diabetes has been induced by treatment with streptozotocin (85 mg./kg.). Four days after such treatment, a number of rats are given 1 millimole/kg. of the compound by intraperitoneal injection and a similar number are given placebo. The doses are repeated after a further 24 hours and 48 hours. Blood samples are taken from a tail vein immediately before each dosage (which is 2 hours after removal of the animals from food) and 1, 2 and 3 hours after the third dose.

[4] = tested on: fasted, closed-chest, anesthetized beagle dogs; experiment: Myocardial blood flow and metabolism in electrically paced, anesthetized beagle dogs, with or without isoprenaline; assay type: in vivo; conditions: 0.02 to 0.1 millimole/kg. intravenously; in the presence and absence of isoprenaline
From the text: (3) reduce oxygen demand and affect the relative utilization of carbohydrate and lipid metabolites by the electrically-paced heart of an anesthetized dog in the presence or absence of an isoprenaline stimulus.
The ability of compounds of formula (I) to reduce oxygen demand and affect the relative utilization of carbohydrate and lipid metabolites in the heart may be assessed by measuring the effect of the compounds on myocardial blood flow and metabolism in fasted, closed-chest, anesthetized beagle dogs, with cardiac catheterization to enable simultaneous sampling of coronary sinus and arterial blood to be carried out. Coronary sinus blood flow is measured by the hydrogen gas clearance technique described by Aukland et al (Circulation Res. 1964, 14, 164). The heart is paced electrically at 155 beats/min. and recordings of hemodynamic parameters (blood pressure, left ventricular pressure and the first derivative of the latter) are made continuously. Control measurements of coronary blood flow are made and samples of blood taken at 40 min. intervals, both in an untreated animal and in the same animal dosed with an infusion of isoprenaline ([…].), which both stimulates cardiac contraction and increases plasma free fatty acid levels. The compound of formula (I) is then administered intravenously and measurements are made and samples taken again, 40 minutes and 90 minutes later. The blood samples from the artery and coronary sinus are analyzed for oxyhemoglobin, pyruvate and free fatty acid (FFA) content, differences between those of the arterial and coronary sinus blood, when multiplied by coronary blood flow, being a measure of oxygen consumption, pyruvate uptake and FFA uptake by the myocardium respectively.

[5] = dose 1.2 mM/kg subcutaneous, 1.5 hours, placebo ratio 0.11-0.24 in the same line

SMILES	activation at 2000 µM [1] [%]	PDHa/PDHt ratio at 1.5 hours (Compound) [2, 5]	also measured
Cc1ccc(C(=O)C(=O)O)cc1 [R=CH3, R1=H, R2=OH, p-methylphenylglyoxylic acid]	71	0.20	–
O=C(O)C(=O)c1ccc(Cl)cc1 [R=Cl, R1=H, R2=OH, p-chlorophenylglyoxylic acid]	71	–	–
O=C(O)C(=O)c1ccccc1 [R=H, R1=H, R2=OH, phenylglyoxylic acid]	–	0.38	activation at 1000 µM ([1]; at 1mM): 25%
CCOC(=O)C(=O)c1ccc(OCC)cc1 [R=OC2H5, R1=H, R2=OC2H5, ethyl p-ethoxyphenylglyoxylate]	–	0.35	–
CCOc1ccc(C(=O)C(=O)O)cc1 [R=OC2H5, R1=H, R2=OH, p-ethoxyphenylglyoxylic acid]	91	0.56	–
COc1ccc(C(=O)C(=O)O)cc1Cl [R=OCH3, R1=3-Cl, R2=OH, m-chloro-p-methoxyphenylglyoxylic acid]	52	0.35	–
COc1ccc(C(=O)C(=O)O)cc1 [R=OCH3, R1=H, R2=OH, p-methoxyphenylglyoxylic acid]	127	0.49	–
Cc1cc(C(=O)C(=O)O)ccc1O [R=OH, R1=3-CH3, R2=OH, p-hydroxy-m-methylphenylglyoxylic acid]	21	0.31	–
O=C(O)C(=O)c1ccc(O)c(I)c1 [R=OH, R1=3-I, R2=OH, p-hydroxy-m-iodophenylglyoxylic acid]	55	–	–
CCOC(=O)C(=O)c1ccc(O)cc1 [R=OH, R1=H, R2=OC2H5, ethyl p-hydroxyphenylglyoxylate]	83	–	–
CC(C)Sc1ccc(C(=O)C(=O)O)cc1 [R=S . isopropyl, R1=H, R2=OH, p-(isopropylthio)phenylglyoxylic acid]	200	–	–
CCCCSc1ccc(C(=O)C(=O)O)cc1 [R=S . n-butyl, R1=H, R2=OH, p-(n-butylthio)phenylglyoxylic acid]	113	–	–
CCSc1ccc(C(=O)C(=O)O)cc1 [R=SC2H5, R1=H, R2=OH, p-(ethylthio)phenylglyoxylic acid]	158	0.73	–
CC(C)(C)CSc1ccc(C(=O)C(=O)O)cc1 [R=SCH2 . t-butyl, R1=H, R2=OH]	67	–	–
CSc1ccc(C(=O)C(=O)O)cc1 [R=SCH3, R1=H, R2=OH, p-(methylthio)phenylglyoxylic acid]	123	–	PDHa/PDHt ratio at 1.5 hours (Compound) ([2]; first of two doses shown only in drawing 5, subcutaneous, placebo 0.20): 0.47; PDHa/PDHt ratio at 1.5 hours (Compound) ([2]; second of two doses shown only in drawing 5, subcutaneous, placebo 0.12): 0.24
O=C(O)C(=O)c1ccc(O)cc1 [p-hydroxyphenylglyoxylic acid]	104	0.28	blood glucose level ([3]; 3 hours after the third dose, 1 millimole/kg. intraperitoneal, placebo 369±9): 344±9 mg./100 ml.; blood glucose level ([3]; after 2 days of treatment, immediately before third dose, 1 millimole/kg. intraperitoneal daily, baseline 376±6, placebo 383±10): 358±9 mg./100 ml.; duration of increased myocardial pyruvate uptake after dosing [4]: at least 90 minutes; myocardial blood flow [4]: increased; myocardial oxygen consumption [4]: decreased; myocardial pyruvate uptake [4]: increases myocardial pyruvate uptake

Source: US4219566A, “Phenylglyoxylic acids and derivatives thereof” (Pfizer Inc., priority 1977, dated 1980)
